“Also recorded” adds a separate entry of the source. Positions of bridges follow the written chain, without caps; N, C: chain ends. Non-standard residues stand in square brackets, D forms with d. Residues, ends and D or L forms follow the SMILES beside them.
Tests used:
Hygroscopicity = type: physicochemical; conditions: drug substance powder
Source text: There is no evidence to support an isolable hydrate. GO-203-2c HCl is hygroscopic, and precautions must be taken to avoid moisture uptake while handling the drug substance powder.

adrenergic α1A receptor = adrenergic α1A receptor (Homo sapiens, UniProt P35348); assay: biochemical
Chain of adrenergic α1A receptor (P35348 whole entry): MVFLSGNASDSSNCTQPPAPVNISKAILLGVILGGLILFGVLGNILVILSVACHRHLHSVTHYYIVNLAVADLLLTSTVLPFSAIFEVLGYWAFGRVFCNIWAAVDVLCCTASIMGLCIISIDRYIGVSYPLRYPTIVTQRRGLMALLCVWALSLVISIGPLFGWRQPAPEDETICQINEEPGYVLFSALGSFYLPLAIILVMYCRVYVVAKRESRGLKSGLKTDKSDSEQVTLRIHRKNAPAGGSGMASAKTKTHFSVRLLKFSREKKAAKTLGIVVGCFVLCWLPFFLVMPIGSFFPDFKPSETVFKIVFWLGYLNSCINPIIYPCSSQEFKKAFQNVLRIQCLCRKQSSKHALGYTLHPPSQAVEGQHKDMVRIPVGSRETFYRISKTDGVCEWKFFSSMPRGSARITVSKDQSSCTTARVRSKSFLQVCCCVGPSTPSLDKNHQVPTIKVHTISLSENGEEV

[1] = Dog pivotal repeat-dose toxicity study; type: in vivo; conditions: for Safety margin: human starting dose lower than NOAEL: 3 mg/m^2 human starting dose
Method: The proposed clinical trial will be a multicenter, open-label, dose-escalation, safety, pharmacodynamic and pharmacokinetic study in patients with advanced solid tumors administered GO-203-2c IV over 60 min once per day for 21 consecutive days; this dosing regimen will be repeated every 28 days. Since the majority of the treatment-related findings in rats and dogs were localized at the infusion site or were secondary to the infusion site reactions, the no-observed-adverse-effect-level (NOAEL) for systemic toxicity in the pivotal repeat-dose rat toxicity study was determined to be 5 mg/kg/day. The highest non-severely toxic dose (HNSTD), which was also considered the NOAEL, was established as 1 mg/kg/day in the dog pivotal repeat-dose toxicity study. For vascular injury at the injection site, the NOAEL in rats is […]. This concentration rate is 25-fold greater than the estimated concentration rate for humans (0.83 μg/mL/min) at the recommended starting dose of 3 mg/m2/day (assumes a body mass of 1.65 m2).

KW-807 LN NSCLC = conditions: mouse
Method: (§1) GO-203-2 and GO-203-2c were evaluated for ability to inhibit proliferation of murine and human carcinoma cell lines in vitro. Test compound (5 μM final concentration) was added to tumor cell cultures daily for 5 to 6 days, and cell viability was determined by trypan blue dye exclusion.

A549 NSCLC = conditions: human
Method: as §1

MCF-7 breast carcinoma = conditions: human
Method: as §1

[2] = system: MiaPaCa pancreatic carcinoma xenograft; assay: MiaPaCa human pancreatic carcinoma xenograft model, GO-203-2c IV; type: in vivo, mouse
Method: Male BALB/c nu/nu mice (8 weeks old; Charles River Laboratories, Wilmington, Mass.) were injected with 2.5 million MiaPaCa cells in the right thigh. When tumors reached a predetermined size (approximately 100 mm^3; 34 days after tumor cell implantation), mice (8 per group) were administered normal saline (control) or GO-203-2c (10 mg/kg) IV daily for 21 consecutive days. At the end of the treatment period, and following a one week interim period, animals that received GO-203-2c initially were administered an additional series of GO-203-2c daily injections.

[3] = system: PC3 prostate carcinoma xenograft; assay: PC3 human prostate carcinoma xenograft model; type: in vivo, mouse; conditions: 7.5 mg/kg
Method: Male BALB/c nu/nu mice (6-7 weeks old; Charles River Laboratories, Wilmington, Mass.) were injected with 5 million A549 or PC3 cells in the right thigh. When tumors reached a predetermined size (approximately 80-100 mm^3; 10-16 days after tumor cell implantation), treatment was initiated as follows: Group 1, saline control (daily×21 days); Group 2, GO-203-2c (7.5 mg/kg, 5 days on/2 days off×3 cycles); Group 3, GO-203-2c (7.5 mg/kg, daily×21 days). In the A549 study, Group 3 animals that still had palpable/measurable tumors at the end of the 21-day treatment period were administered an additional 9 days of GO-203-2c treatment (Group 3′), with a one week interim period between treatments.

[4] = system: ZR-75-1 Breast cancer cells; assay: Inhibition of cell proliferation, trypan blue exclusion (Table 1); type: cell-based, human; conditions: 5 μM peptide every day, 6-day treatment
Method: Cells (ZR-75-1 breast carcinoma or H-1975 non-small cell lung carcinoma) were plated separately in 24-well plates for 24 hours prior to treatment with different peptides. The cells were then treated with 5 μM (final concentration) of different peptides every day for 4-6 days. On the day of termination, cells were washed two times with PBS and trypsinized with 0.3 ml of Trypsin/EDTA. Cell growth media was used to stop the trypsin reaction. Following washing, the cells were centrifuged and the cell pellets were re-suspended in PBS for counting in hemacytometer.
The trypan blue dye exclusion method was used to determine the number of viable cells present in a cell suspension. Cell suspension was mixed as 1:1 with the trypan blue dye and then visually examined in a hemacytometer. A viable cell will have a clear cytoplasm whereas a non-viable/dead cell will be stained with trypan blue dye. By doing this trypan blue exclusion method, viable cell numbers were counted and percent inhibition of proliferation was then calculated comparing with untreated controls.

muscarinic M2 receptor = muscarinic M2 receptor (Homo sapiens, UniProt P08172); assay: biochemical
Chain of muscarinic M2 receptor (P08172 whole entry): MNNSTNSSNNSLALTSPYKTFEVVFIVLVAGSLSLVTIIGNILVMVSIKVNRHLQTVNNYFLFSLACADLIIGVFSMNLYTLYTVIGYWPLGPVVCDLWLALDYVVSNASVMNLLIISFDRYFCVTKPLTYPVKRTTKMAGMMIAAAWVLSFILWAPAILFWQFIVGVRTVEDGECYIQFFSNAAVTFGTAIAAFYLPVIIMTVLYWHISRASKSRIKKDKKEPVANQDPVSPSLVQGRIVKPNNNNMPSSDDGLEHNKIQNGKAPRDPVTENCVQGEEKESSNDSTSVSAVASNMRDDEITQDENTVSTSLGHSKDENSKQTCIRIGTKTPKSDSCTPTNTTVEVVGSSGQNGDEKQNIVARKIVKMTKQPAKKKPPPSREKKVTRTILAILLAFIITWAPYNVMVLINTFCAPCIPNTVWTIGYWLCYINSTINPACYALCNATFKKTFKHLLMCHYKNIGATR

[5] = system: human carcinoma cell lines
Method: A series of in vitro and in vivo primary pharmacodynamic studies was conducted to assess efficacy and mechanism of action of GO-203-2c in human tumor cells.
as §1

MUC1-CD = MUC1-CD oligomerization in transfected HEK 293T cells, species comparison; type: cell-based; conditions: MUC1-CD from rat, dog and human compared
Method: Studies were also conducted to confirm pharmacological relevance of the rodent and nonrodent species chosen for toxicology studies, namely the rat and dog, respectively. MUC1-CD amino acid sequence was determined to be greater than 80% identical between rat, dog and human proteins, and similar expression of MUC1 was found in stomach, intestinal and lung epithelium from the different species using immunohistochemical staining. […] The results of these studies indicate that potential MUC1-CD targets in the rat, dog and human are similar with respect to sequence, tissue expression and responsiveness to inhibition of oligomerization by GO-203-2c, and confirm pharmacological relevance of the species chosen for nonclinical safety assessment of GO-203-2c.

[6] = system: ZR-75-1 human breast carcinoma xenograft; assay: ZR-75-1 xenograft model, 5 days on/2 days off IV dosing schedule; type: in vivo, mouse; conditions: for Mice completely cured / Tumor response: 7.5 mg/kg IV
Method: In a second study using this ZR-75-1 cell xenograft model, a 5 days on/2 days off IV dosing schedule was used, and groups of 8 mice received either one, two or three cycles utilizing this schedule. […] Tumor growth was cytostatic for 4-5 days after stopping the drug treatment, but tumors subsequently started re-growing similarly to control. […] Tumors in the remaining 5 of 8 mice in this group started re-growing at 8+ days after cessation of treatment. These animals were administered an additional 2 cycles of treatment, starting on Day 29.

[7] = 10 mg/kg IV daily for 21 consecutive days

With `CC(=O)N[C@H](CCCNC(=N)N)C(=O)N[C@H](CCCNC(=N)N)C(=O)N[C@H](CCCNC(=N)N)C(=O)N[C@H](CCCNC(=N)N)C(=O)N[C@H](CCCNC(=N)N)C(=O)N[C@H](CCCNC(=N)N)C(=O)N[C@H](CCCNC(=N)N)C(=O)N[C@H](CCCNC(=N)N)C(=O)N[C@H](CCCNC(=N)N)C(=O)N[C@@H]1CSSC[C@H](C(=O)N[C@H](CCCNC(=N)N)C(=O)N[C@H](CCCNC(=N)N)C(=O)N[C@H](CCCCN)C(=O)N[C@H](CC(N)=O)C(N)=O)NC(=O)[C@@H](CCC(N)=O)NC1=O` [GO-203-2c, Ac-(D)Arg-(D)Arg-(D)Arg-(D)Arg-(D)Arg-(D)Arg-(D)Arg-(D)Arg-(D)Arg-(D)Cys-(D)Gln-(D)Cys-(D)Arg-(D)Arg-(D)Lys-(D)Asn-NH2 disulfide] (Ac-[dR][dR][dR][dR][dR][dR][dR][dR][dR][dC][dQ][dC][dR][dR][dK][dN]-NH2; disulfide 10-12) as the compound, how does the Hygroscopicity (Hygroscopicity) read?
Its Hygroscopicity is “hygroscopic”.

And the IC50 (adrenergic α1A receptor)?
Its IC50 is 3 to 8 µM.

What about the “HNSTD or NOAEL” value ([1]; body surface area basis) of the same compound?
Its value is 20 mg/m2/day.

What about the NOAEL ([1]; in vivo, repeat-dose IV, read-out: Highest non-severely toxic dose (HNSTD), also considered the NOAEL) of the same compound?
Its NOAEL is 1 mg/kg/day.

What about the “Safety margin: human starting dose lower than NOAEL” value ([1]; mg/kg basis) of the same compound?
Its value is 12 fold.

And the “Safety margin: human starting dose lower than NOAEL” value ([1]; mg/m^2 basis)?
The value was 6.7 fold.

What about the “% Inhibition of cell viability” value (KW-807 LN NSCLC) of the same compound?
Its value is 40.3%.

And the “% Inhibition of cell viability” value (A549 NSCLC)?
Its value is 73.1%.

What about the “% Inhibition of cell viability” value (MCF-7 breast carcinoma) of the same compound?
The value was 87.7%.

And the Mice tumor-free [2, 7]?
Its Mice tumor-free is 2 of 8 and Two out of 8.

What about the Tumor response [2, 7] of the same compound?
The Tumor response was “significant arrest of tumor growth; also recorded: tumor growth delay”.

What about the “Tumor response after re-dosing” value ([2]; another cycle of daily IV 10 mg/kg from day 29) of the same compound?
The value was “somewhat stabilized, with a very slow growth”.

What about the “Average tumor size on day 29” value ([2]; six remaining mice after 7-day rest period, at start of re-dosing) of the same compound?
The value was roughly 400 mm^3.

What about the Tumor response ([3]; 5 days on/2 days off x 3 cycles) of the same compound?
Its Tumor response is “complete growth arrest and regression; also recorded: tumor growth was immediately arrested and tumors regressed”.

What about the Tumor response ([3]; daily x 21 days) of the same compound?
Its Tumor response is “complete growth arrest and regression; also recorded: tumor growth was immediately arrested and tumors regressed”.

What about the “Avg (viable cell number of Groups 1-3)” value [4] of the same compound?
Its value is 9.83.

And the “% inhibition” value ([4]; vs untreated control)?
Its value is 58.69%.

What about the “Group-1 (viable cell number, individual well)” value ([4]; well having 10,000 cells) of the same compound?
Its value is 9.18.

What about the “Group-2 (viable cell number, individual well)” value ([4]; well having 10,000 cells) of the same compound?
The value was 11.22.

And the “Group-3 (viable cell number, individual well)” value ([4]; well having 10,000 cells)?
The value was 8.55.

What about the IC50 (muscarinic M2 receptor) of the same compound?
The IC50 was 3 to 8 µM.

What about the “50% inhibition (IC50) of proliferation” value [5] of the same compound?
The value was 5 to 11 µg/mL.

And the IC50 [5]?
Its IC50 is 2 to 5 µM.

And the “Inhibition of MUC1-CD oligomerization” value (MUC1-CD)?
Its value is “in an equivalent manner”.

What about the Mice completely cured ([6]; 2 dosing cycles) of the same compound?
The Mice completely cured was “Two of 8”.

What about the Tumor response ([6]; 2 dosing cycles (5 days on/2 days off)) of the same compound?
Its Tumor response is “Tumor regression”.

And the Mice completely cured ([6]; 3 dosing cycles)?
Its Mice completely cured is “Three of 8”.

What about the Tumor response ([6]; 3 dosing cycles (5 days on/2 days off)) of the same compound?
Its Tumor response is “tumor growth arrest during the treatment period, but the tumors resumed growth; also recorded: substantial regression of tumors”.

What about the Tumor response ([6]; one dosing cycle (5 days on/2 days off)) of the same compound?
Its Tumor response is “partial tumor regression”.

What about the “Tumor response after re-dosing” value ([6]; additional 2 cycles from Day 29 in 5 mice with re-growing tumors) of the same compound?
Its value is “somewhat stabilized with very slow growth”.

— patent US8685928B2, “Antagonists of MUC1” (Dana-Farber Cancer Institute, Inc., priority 2010, dated 2014)
